Test results published in PubChem BioAssay AID248 (DTP/NCI, 2004).
Values joined by “and” are separate entries in the source; they are usually repeats but may differ in a detail not shown here. Equal entries are not always repeated. Inconclusive results and toxic doses are left out. Cut-off read from the data, not from the text of the source: active = T/C of 150% or more; inactive = T/C below 125%.

Tested on: L1210 leukemia ip in BDF1 mice, survival T/C
Assay: NCI In Vivo Anticancer Drug Screen. Data for tumor model L1210 Leukemia (intraperitoneal) in B6D2F1 (BDF1) mice
Conditions: endpoint: mean survival time, higher = longer survival
Summary of the method: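 Transplantable tumor model; survival measured in treated vs vehicle control mice. Value = treated/control.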

[1] = dose: 100.0 mg/kg/injection, schedule: Q01DX001 (ip), vehicle: saline
[2] = dose: 200.0 mg/kg/injection, schedule: Q01DX001 (ip), vehicle: saline
[3] = dose: 400.0 mg/kg/injection, schedule: Q01DX001 (ip), vehicle: saline
[4] = dose: 100.0 mg/kg/injection, schedule: Q01DX009 (ip), vehicle: Klucel (hydroxypropylcellulose) (HPC)
[5] = dose: 200.0 mg/kg/injection, schedule: Q01DX009 (ip), vehicle: Klucel (hydroxypropylcellulose) (HPC)
[6] = dose: 400.0 mg/kg/injection, schedule: Q01DX009 (ip), vehicle: Klucel (hydroxypropylcellulose) (HPC)
[7] = dose: 100.0 mg/kg/injection, schedule: Q04DX003 (ip), vehicle: saline with Tween-80
[8] = dose: 100.0 mg/kg/injection, schedule: Q01DX001 (ip), vehicle: Klucel (hydroxypropylcellulose) (HPC)
[9] = dose: 200.0 mg/kg/injection, schedule: Q01DX001 (ip), vehicle: Klucel (hydroxypropylcellulose) (HPC)
[10] = dose: 400.0 mg/kg/injection, schedule: Q01DX001 (ip), vehicle: Klucel (hydroxypropylcellulose) (HPC)
[11] = dose: 200.0 mg/kg/injection, schedule: Q04DX003 (ip), vehicle: saline with Tween-80

Measured: T/C

Brc1cnn2c1NCC2
inactive: dose: 12.5 mg/kg/injection, schedule: Q01DX009 (ip), vehicle: water 100 % of control | dose: 12.5 mg/kg/injection, schedule: Q04DX003 (ip), vehicle: water 95 % of control | dose: 25.0 mg/kg/injection, schedule: Q01DX009 (ip), vehicle: water 101 % of control | dose: 25.0 mg/kg/injection, schedule: Q04DX003 (ip), vehicle: water 100 % of control | dose: 50.0 mg/kg/injection, schedule: Q01DX009 (ip), vehicle: water 97 % of control | dose: 50.0 mg/kg/injection, schedule: Q04DX003 (ip), vehicle: water 101 % of control | dose: 100.0 mg/kg/injection, schedule: Q01DX009 (ip), vehicle: water 97 % of control and 89 % of control | dose: 200.0 mg/kg/injection, schedule: Q01DX009 (ip), vehicle: water 93 % of control

On1ccc(N2CCOCC2)cc1=Nc1ccccc1
inactive: [1] 96 % of control

O=C(Cc1ccc2c(c1)OCO2)c1cn(C(=O)Cc2ccc3c(c2)OCO3)c2ccccc12
inactive: dose: 50.0 mg/kg/injection, schedule: Q01DX001 (ip), vehicle: saline 108 % of control | [1] 102 % of control | [2] 93 % of control | [3] 96 % of control

CCOC(=O)c1ccc(NC(=O)Oc2ccc(OC)cc2)cc1
inactive: [4] 96 % of control | [5] 100 % of control | [6] 98 % of control

NCCCCC(N)C(=O)NCCCCCCNCCCCCCNC(=O)C(N)CCCCN (stereo not drawn)
inactive: dose: 10.0 mg/kg/injection, schedule: Q01DX Z (ip), vehicle: saline 95 % of control | dose: 30.0 mg/kg/injection, schedule: Q01DX Z (ip), vehicle: saline 95 % of control | [1] 90 % of control | dose: 100.0 mg/kg/injection, schedule: Q01DX Z (ip), vehicle: saline 95 % of control | [2] 103 % of control

CCc1cc(CC)c(S(=O)(=O)O)c(CC)c1CC
inactive: dose: 100.0 mg/kg/injection, schedule: Q01DX009 (ip), vehicle: saline 90 % of control

CCN(CC)CCOC(=O)Cc1ccccc1
inactive: [4] 94 % of control | dose: 100.0 mg/kg/injection, schedule: Q04DX003 (ip), vehicle: Klucel (hydroxypropylcellulose) (HPC) 97 % of control | [5] 104 % of control | dose: 200.0 mg/kg/injection, schedule: Q04DX003 (ip), vehicle: Klucel (hydroxypropylcellulose) (HPC) 100 % of control | [6] 105 % of control | dose: 400.0 mg/kg/injection, schedule: Q04DX003 (ip), vehicle: Klucel (hydroxypropylcellulose) (HPC) 100 % of control

O=C(Nc1cccc(Cl)c1)Nc1cccc(C(F)(F)F)c1
inactive: dose: 15.0 mg/kg/injection, schedule: Q01DX015 (ip), vehicle: carboxymethylcellulose (CMC) 103 % of control | dose: 30.0 mg/kg/injection, schedule: Q01DX015 (ip), vehicle: carboxymethylcellulose (CMC) 103 % of control | dose: 60.0 mg/kg/injection, schedule: Q01DX015 (ip), vehicle: carboxymethylcellulose (CMC) 100 % of control | dose: 120.0 mg/kg/injection, schedule: Q01DX015 (ip), vehicle: carboxymethylcellulose (CMC) 103 % of control

Oc1ccc(Cl)cc1C(c1cc(Cl)ccc1O)C(Cl)(Cl)Cl
inactive: dose: 100.0 mg/kg/injection, schedule: Q04DX002 (ip), vehicle: saline + alcohol 99 % of control | dose: 200.0 mg/kg/injection, schedule: Q04DX002 (ip), vehicle: saline + alcohol 108 % of control | dose: 400.0 mg/kg/injection, schedule: Q04DX002 (ip), vehicle: saline + alcohol 102 % of control

CN(C)C=Nc1c(I)cc(I)c(CCC(=O)O)c1I
inactive: [1] 96 % of control | [2] 96 % of control | [3] 94 % of control

CC(C)(C)CC(C)(C)CC(C)(C)NCCCN
inactive: dose: 12.5 mg/kg/injection, schedule: Q01DX009 (ip), vehicle: saline with Tween-80 102 % of control | dose: 25.0 mg/kg/injection, schedule: Q01DX009 (ip), vehicle: saline with Tween-80 93 % of control | dose: 25.0 mg/kg/injection, schedule: Q04DX003 (ip), vehicle: saline with Tween-80 90 % of control | dose: 50.0 mg/kg/injection, schedule: Q04DX003 (ip), vehicle: saline with Tween-80 97 % of control | [7] 96 % of control

O=[N+]([O-])c1ccccc1N=Nc1c(O)[nH]c2ccc(Cl)cc12
inactive: [1] 95 % of control | [3] 92 % of control

[N-]=[N+]=N/C(=C\c1ccccc1)C(=O)c1ccccc1
inactive: [8] 94 % of control | dose: 100.0 mg/kg/injection, schedule: Q04DX003 (ip), vehicle: other 100 % of control | [9] 98 % of control | dose: 200.0 mg/kg/injection, schedule: Q04DX003 (ip), vehicle: other 98 % of control | [10] 94 % of control | dose: 400.0 mg/kg/injection, schedule: Q04DX003 (ip), vehicle: other 91 % of control

Cc1cc[n+](C2CC(C)(C)c3ccccc3C2=O)cc1 (stereo not drawn)
inactive: dose: 12.5 mg/kg/injection, schedule: Q01DX001 (ip), vehicle: Klucel (hydroxypropylcellulose) (HPC) 100 % of control | dose: 25.0 mg/kg/injection, schedule: Q01DX001 (ip), vehicle: Klucel (hydroxypropylcellulose) (HPC) 113 % of control | dose: 50.0 mg/kg/injection, schedule: Q01DX001 (ip), vehicle: Klucel (hydroxypropylcellulose) (HPC) 98 % of control

CCOP(=O)(Cc1ccc(N(CCI)CCI)cc1)OCC
inactive: dose: 75.0 mg/kg/injection, schedule: Q01DX001 (ip), vehicle: saline 116 % of control | dose: 150.0 mg/kg/injection, schedule: Q01DX001 (ip), vehicle: saline 116 % of control

CCOc1ccc(NC(C)=O)cc1CN(CCCl)CCBr
inactive: [8] 97 % of control | [9] 111 % of control | [10] 100 % of control

Clc1ccc(NC(Nc2ccc(Cl)c(Cl)c2)C(Cl)(Cl)Cl)cc1Cl
inactive: [7] 101 % of control | [11] 90 % of control

[Si]c1cccc2ccccc12
inactive: dose: 25.6 mg/kg/injection, schedule: Q04DX002 (ip), vehicle: saline with Tween-80 97 % of control | dose: 64.0 mg/kg/injection, schedule: Q04DX002 (ip), vehicle: saline with Tween-80 97 % of control | dose: 160.0 mg/kg/injection, schedule: Q04DX002 (ip), vehicle: saline with Tween-80 97 % of control | dose: 400.0 mg/kg/injection, schedule: Q04DX002 (ip), vehicle: saline with Tween-80 101 % of control

COC(=O)/C=C/C=C(c1ccccc1)c1ccccc1
inactive: dose: 100.0 mg/kg/injection, schedule: Q01DX001 (ip), vehicle: carboxymethylcellulose (CMC) 93 % of control | dose: 200.0 mg/kg/injection, schedule: Q01DX001 (ip), vehicle: carboxymethylcellulose (CMC) 102 % of control | dose: 400.0 mg/kg/injection, schedule: Q01DX001 (ip), vehicle: carboxymethylcellulose (CMC) 102 % of control

CC(C)Oc1c(NCCO)c2cc(Cl)ccc2oc1=O
inactive: dose: 100.0 mg/kg/injection, schedule: Q04DX002 (ip), vehicle: Klucel (hydroxypropylcellulose) (HPC) 103 % of control | dose: 200.0 mg/kg/injection, schedule: Q04DX002 (ip), vehicle: Klucel (hydroxypropylcellulose) (HPC) 106 % of control | dose: 400.0 mg/kg/injection, schedule: Q04DX002 (ip), vehicle: Klucel (hydroxypropylcellulose) (HPC) 106 % of control

CCOc1ccc(CO)cc1
inactive: [7] 97 % of control | [11] 100 % of control | dose: 400.0 mg/kg/injection, schedule: Q04DX003 (ip), vehicle: saline with Tween-80 89 % of control

OCC1(c2ccccc2)CCCC1(CO)c1ccccc1 (stereo not drawn)
inactive: dose: 15.0 mg/kg/injection, schedule: Q01DX001 (ip), vehicle: carboxymethylcellulose (CMC) 95 % of control | dose: 30.0 mg/kg/injection, schedule: Q01DX001 (ip), vehicle: carboxymethylcellulose (CMC) 93 % of control | dose: 60.0 mg/kg/injection, schedule: Q01DX001 (ip), vehicle: carboxymethylcellulose (CMC) 91 % of control

ClCC(Cl)C1CCC(Cl)C(Cl)C1 (stereo not drawn)
inactive: dose: 50.0 mg/kg/injection, schedule: Q01DX009 (ip), vehicle: other 95 % of control | dose: 100.0 mg/kg/injection, schedule: Q01DX009 (ip), vehicle: other 90 % of control | dose: 200.0 mg/kg/injection, schedule: Q01DX009 (ip), vehicle: other 90 % of control

Cc1c(C)c(C)c(C(=O)O)c(C)c1C
inactive: dose: 50.0 mg/kg/injection, schedule: Q01DX009 (ip), vehicle: saline with Tween-80 93 % of control | dose: 100.0 mg/kg/injection, schedule: Q01DX009 (ip), vehicle: saline with Tween-80 90 % of control | dose: 200.0 mg/kg/injection, schedule: Q01DX009 (ip), vehicle: saline with Tween-80 93 % of control
